Measured values published in patent US5290926A, “Isolated DNA Encoding plant histidinol dehydrogenase” (Ciba-Geigy Corporation, priority 1990, dated 1994).
Read-outs that look alike come from different tables or passages of the source. Values belong to the molecule of their own block, whether it stands above or below them.

Columns and labels:
[1] = target: T1, histidinol dehydrogenase from cabbage (Brassica oleracea var. capitata, UniProt P24226); experiment: Histidinol dehydrogenase enzyme assay (spectrophotometric, NAD+ reduction at 340 nm); format: biochemical; conditions: for Relative Activity: metal ion 0.5 mM, activity after 3 min reaction time, None = 100
T1 construct: Spring cabbage heads are homogenized using a kitchen mixer; from tissue; host or cells: mature spring cabbage heads
T1 sequence (P24226 32-469): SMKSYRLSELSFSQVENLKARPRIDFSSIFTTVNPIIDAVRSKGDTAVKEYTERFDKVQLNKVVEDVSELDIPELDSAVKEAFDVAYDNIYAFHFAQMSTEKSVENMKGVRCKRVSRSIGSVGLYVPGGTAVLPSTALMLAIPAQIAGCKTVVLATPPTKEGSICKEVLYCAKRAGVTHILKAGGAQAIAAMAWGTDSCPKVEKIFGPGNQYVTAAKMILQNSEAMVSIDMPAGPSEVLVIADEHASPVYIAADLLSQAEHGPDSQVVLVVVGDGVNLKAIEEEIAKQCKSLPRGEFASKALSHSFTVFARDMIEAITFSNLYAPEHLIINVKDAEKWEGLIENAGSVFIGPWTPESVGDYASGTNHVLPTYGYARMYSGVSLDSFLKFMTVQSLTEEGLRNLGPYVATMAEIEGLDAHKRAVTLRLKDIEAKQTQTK
Description: (§1) The enzyme activity is assayed spectrophotometrically by measuring the increase in absorbence at 340 nm due to the reduction of NAD+in a Hitachi U-3120 spectrophotomer. The reaction mixture contained 150 mM Gly/NaOH buffer, pH 9.2, 0.5 mM, MnCl , 2 mM NAD+, 5 mM histidinol, and 2-5 mU of enzyme sample in total volume of 0.5 ml. The reaction is started with the addition of histidinol, and incubated at 30° C. A reference sample containing water instead of histidinol is always run. One unit of enzyme catalyzes the formation of 2 μmol of NADH per min under the assay conditions.
as §1, with “absorbance” for “absorbence”, “spectrophotometer.” for “spectrophotomer.”, “pH9.2,” for “pH 9.2,”, “MnCl2,” for “MnCl ,”, “NAD +,” for “NAD+,”, “catalyzing” for “catalyzes”

[2] = system: histidinol dehydrogenase from S. typhimurium; conditions: cited from earlier work
[3] = system: histidinol dehydrogenase from wheat germ; conditions: cited from earlier work
[4] = substrate: N[C@H](CO)Cc1c[nH]cn1; experiment: purified protein, by the assay type; conditions: other: standard assay conditions; pH 9.2; 30.0 °C
[5] = substrate: NC(=O)c1ccc[n+]([C@@H]2O[C@H](COP(=O)([O-])OP(=O)(O)OC[C@H]3O[C@@H](n4cnc5c(N)ncnc54)[C@H](O)[C@@H]3O)[C@@H](O)[C@H]2O)c1; experiment: Histidinol dehydrogenase enzyme assay (spectrophotometric, NAD+ reduction at 340 nm); format: biochemical, cabbage (Brassica oleracea); conditions: other: standard assay conditions; pH 9.2; 30.0 °C
Description: as §1
as §1, with “absorbance” for “absorbence”, “spectrophotometer.” for “spectrophotomer.”, “pH9.2,” for “pH 9.2,”, “MnCl2,” for “MnCl ,”, “NAD +,” for “NAD+,”, “catalyzing” for “catalyzes”

[6] = reaction buffer 150 mM Gly/NaOH, pH9.2

Molecule: [Mn+2] [Mn^2+]
- Relative Activity [1]: 126%
- influence of divalent metal ion on the enzyme reaction (in words) [1, 6]: stimulation of the enzyme activity
- stimulation of the reaction compared to control without any divalent metal ion [1, 6]: 26%
- effect of metal ion on the reaction catalyzed by the S. typhimurium enzyme (in words) [2]: stimulated

Molecule: N[C@H](CO)Cc1c[nH]cn1 [L-histidinol]
- Km ([3]; read-out: Km of the partially purified enzyme from wheat germ for L-histidinol): 8.8 µM
- Km ([2]; read-out: Km of the pure enzyme from S. typhimurium for L-histidinol, pure enzyme): 16 µM

Molecule: NC(=O)c1ccc[n+]([C@@H]2O[C@H](COP(=O)([O-])OP(=O)(O)OC[C@H]3O[C@@H](n4cnc5c(N)ncnc54)[C@H](O)[C@@H]3O)[C@@H](O)[C@H]2O)c1 [NAD+]
- Km ([3]; partially purified enzyme, read-out: Km of the enzyme from wheat germ for NAD+): 140 µM
- Km ([2]; read-out: Km of the enzyme from S. typhimurium for NAD+): 1000 µM

- Relative Activity [1]: 54%
- influence of divalent metal ion on the enzyme reaction (in words) [1, 6]: caused inhibition
Molecule: [Mg+2] [Mg^2+]

- Relative Activity [1]: 36%
- influence of divalent metal ion on the enzyme reaction (in words) [1, 6]: caused inhibition
Molecule: [Ca+2] [Ca^2+]

- Relative Activity [1]: 24%
- influence of divalent metal ion on the enzyme reaction (in words) [1, 6]: caused inhibition
Molecule: [Cu+2] [Cu^2+]

Molecule: [Ba+2] [Ba^2+]
- Relative Activity [1]: 65%
- influence of divalent metal ion on the enzyme reaction (in words) [1, 6]: caused inhibition

Molecule: [Ni+2] [Ni^2+]
- Relative Activity [1]: 46%
- influence of divalent metal ion on the enzyme reaction (in words) [1, 6]: caused inhibition

- Relative Activity [1]: 34%
- influence of divalent metal ion on the enzyme reaction (in words) [1, 6]: caused inhibition
Molecule: [Zn+2] [Zn^2+]

B1: histidinol dehydrogenase from cabbage (Brassica oleracea var. capitata) (protein)
chain: T1 sequence (P24226 32-469)
notes: Spring cabbage heads are homogenized using a kitchen mixer; from tissue; host or cells: mature spring cabbage heads
- Km [4]: 15.5 µM
- Km [5]: 42 µM
